This is an account of results in patent publication US20230081720A1, “MCL-1 INHIBITOR ANTIBODY-DRUG CONJUGATES AND METHODS OF USE” (NOVARTIS AG, priority 2019, published 2023).

By IC50 is commonly meant the concentration that gives 50% inhibition. Broadly, the koff is the first-order rate constant of dissociation. Usually kon stands for a measure of how fast the partners come together.

Assay [1] has as its system EOL-1. The class given is cell-based. As to the method: (§1) Cell lines were cultured in media that is optimal for their growth at 5% CO2, 37° C. in a tissue culture incubator. Prior to seeding for the proliferation assay, the cells were split at least 2 days before the assay to ensure optimal growth density. […] Cell viability and cell density were determined using a cell counter (Vi-Cell XR Cell Viability Analyzer, Beckman Coulter). […] Cells were seeded at a density of 1,000 cells per well in 45 μL of standard growth media. Plates were incubated at 5% CO2, 37° C. overnight in a tissue culture incubator. […] Each drug concentration was tested in quadruplets. […] Plates were incubated at room temperature for 10 minutes to stabilize luminescent signals prior to reading using a luminescence reader (EnVision Multilabel Plate Reader, PerkinElmer). To evaluate the effect of the drug treatments, luminescent counts from wells containing untreated cells (100% viability) were used to normalize treated samples.

Assay [2] has as its system MONO-MAC-1. The class given is cell-based. The conditions noted are these: CD74 ADC with the named linker-payload, 5 days. The procedure:
as §1

In assay [3] the test system is NOMO-1. The class given is cell-based. The procedure: as §1
Assay [4] has as its target soluble cyno CD74 (cyno). In words: SPR, Biacore 8K; IgG captured by anti-IgG Fc, soluble CD74 as analyte; 1:1 model, apparent kinetics. For orientation: In SPR one partner is held on a chip, and binding of the other changes the refractive index at the surface.
Assay [5] deals with T1, soluble human CD74 (human, UniProt P04233-2 73-232, limits assumed).
T1 construct: CD74' flowed over as analyte; also called human CD74 protein
T1 sequence (looked up): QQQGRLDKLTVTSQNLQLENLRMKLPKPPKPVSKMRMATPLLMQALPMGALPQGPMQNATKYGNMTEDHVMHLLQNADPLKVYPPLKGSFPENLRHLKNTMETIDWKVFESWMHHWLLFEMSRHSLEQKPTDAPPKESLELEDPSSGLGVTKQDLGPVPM
Described as above. From the text:
Double reference subtraction was completed to generate the final data.

Where [6] appears, read: CD74 ADC with the named linker-payload, 5 days.
The mark [7] stands for this setting: CD74 ADC with the named linker-payload, 5 days, read-out: EOL-1 IC50.
Where [8] appears, read: CD74 ADC with the named linker-payload, 5 days, read-out: NOMO-1 IC50.

Where a name gives a salt, the structure may show the parent alone. Read-outs that look alike come from different tables or passages of the source.

soluble cyno CD74 (cyno), sequence (P04233 other isoform, or with tags, fused parts or gaps): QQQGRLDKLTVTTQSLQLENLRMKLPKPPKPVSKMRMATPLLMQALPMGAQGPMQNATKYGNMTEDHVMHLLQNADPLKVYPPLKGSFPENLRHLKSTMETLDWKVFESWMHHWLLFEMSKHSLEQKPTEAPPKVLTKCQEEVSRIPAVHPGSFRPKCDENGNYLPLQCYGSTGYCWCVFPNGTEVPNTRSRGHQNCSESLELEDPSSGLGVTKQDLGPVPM

With `COCCOCCOCCOCCOCCOCCOCCOCCOCCOCCOCCOCCOCCOCCOCCOCCC(=O)N(C)Cc1cc(NC(=O)[C@H](CCCNC(N)=O)NC(=O)[C@@H](NC(=O)CCOCCN2C(=O)C=CC2=O)C(C)C)ccc1C[N+]1(C)CCN(CCOc2ccc(-c3c(-c4ccc(F)cc4)sc4ncnc(O[C@H](Cc5ccccc5OCc5ccnc(-c6ccccc6OC)n5)C(=O)O)c34)c(C)c2Cl)CC1` [L31-P1], the IC50 came to 0.466 nM in assay [1], 3.96 nM in assay [2] and 1.2 nM in assay [3]. The “EOL-1 Amax” value in assay [1] (setting [6]) is reported as 83.98. Also, in assay [2], the “MONO-MAC-1 Amax” value was found to be 110.3. The “NOMO-1 Amax” value in assay [3] (setting [6]) is 73.4.
On to `COCCOCCOCCOCCOCCOCCOCCOCCOCCOCCOCCOCCOCCOCCOCCOCCOCCOCCOCCOCCOCCOCCOCCOCCC(=O)N(C)Cc1cc(NC(=O)[C@H](CCCNC(N)=O)NC(=O)[C@@H](NC(=O)CCOCCN2C(=O)C=CC2=O)C(C)C)ccc1C[N+]1(C)CCN(CCOc2ccc(-c3c(-c4ccc(F)cc4)sc4ncnc(O[C@H](Cc5ccccc5OCc5ccnc(-c6ccccc6OC)n5)C(=O)O)c34)c(C)c2Cl)CC1` [L30-P1], for which the figures for the half-inhibitory concentration (IC50) in assay [1], in assay [2] and in assay [3] were 0.251 nM, 5.45 nM and 1.62 nM, respectively. In addition, in assay [1] (setting [6]), the “EOL-1 Amax” value is given as 197.6. The “MONO-MAC-1 Amax” value in assay [2] is listed as 86.78. Also, the “NOMO-1 Amax” value in assay [3] (setting [6]) worked out at 78.95.
In the case of `COCCOCCOCCOCCOCCOCCOCCOCCOCCOCCOCCOCCOCCOCCOCCOCCOCCOCCOCCOCCOCCOCCOCCOCCn1cc(COCc2cc(NC(=O)[C@H](CCCNC(N)=O)NC(=O)[C@@H](NC(=O)CCOCCN3C(=O)C=CC3=O)C(C)C)ccc2C[N+]2(C)CCN(CCOc3ccc(-c4c(-c5ccc(F)cc5)sc5ncnc(O[C@H](Cc6ccccc6OCc6ccnc(-c7ccccc7OC)n6)C(=O)O)c45)c(C)c3Cl)CC2)nn1` [L5-P1], the IC50 came to 1.02 nM in assay [1], 7.95 nM in assay [2] and 2.22 nM in assay [3]. For the same molecule, the “EOL-1 Amax” value in assay [1] (setting [6]) is given as 75.06. The “MONO-MAC-1 Amax” value in assay [2] amounted to 84.9. In assay [3] (setting [6]), the “NOMO-1 Amax” value turned out to be 55.58.
As to `COc1ccccc1-c1nccc(COc2ccccc2C[C@@H](Oc2ncnc3sc(-c4ccc(F)cc4)c(-c4ccc(OCCN5CC[N+](C)(Cc6ccc(NC(=O)[C@H](CCCNC(N)=O)NC(=O)[C@@H](NC(=O)CCOCCN7C(=O)C=CC7=O)C(C)C)cc6CN(C)C(=O)OC[C@H](NC(=O)CS(=O)(=O)O)C(=O)O)CC5)c(Cl)c4C)c23)C(=O)O)n1` [L77-P1], the IC50 in assay [1] is 0.383 nM; in assay [2], 0.987 nM; in assay [3], 3.19 nM. In addition, the “EOL-1 Amax” value in assay [1] (setting [6]) is listed as 102.6. For the same molecule, the “MONO-MAC-1 Amax” value in assay [2] stood at 108.2. In assay [3] (setting [6]), the “NOMO-1 Amax” value worked out at 48.53.
Regarding `COc1ccccc1-c1nccc(COc2ccccc2C[C@@H](Oc2ncnc3sc(-c4ccc(F)cc4)c(-c4ccc(OCCN5CC[N+](C)(Cc6ccc(NC(=O)[C@H](CCCNC(N)=O)NC(=O)[C@@H](NC(=O)CCOCCN7C(=O)C=CC7=O)C(C)C)cc6CN(C)C(=O)[C@H](CCC(=O)O)NC(=O)CS(=O)(=O)O)CC5)c(Cl)c4C)c23)C(=O)O)n1` [L71-P1, 4-(2-(4-(4-((R)-1-carboxy-2-(2-((2-(2-methoxyphenyl)pyrimidin-4-yl)methoxy)phenyl)ethoxy)-6-(4-fluorophenyl)thieno[2,3-d]pyrimidin-5-yl)-2-chloro-3-methylphenoxy)ethyl)-1-(2-(((S)-4-carboxy-N-methyl-2-(2-sulfoacetamido)butanamido)methyl)-4-((S)-2-((S)-2-(3-(2-(2,5-dioxo-2,5-dihydro-1H-pyrrol-1-yl)ethoxy)propanamido)-3-methylbutanamido)-5-ureidopentanamido)benzyl)-1-methylpiperazin-1-ium], the “EOL-1 Amax” value in assay [1] (setting [6]) came out at 93.09. Further, the figures for the IC50 in assay [1] (setting [7]) and in assay [3] (setting [8]) were 0.341 nM and 9.82 nM, respectively. In assay [3] (setting [6]), the “NOMO-1 Amax” value stood at 53.62.
For `COc1ccccc1-c1nccc(COc2ccccc2C[C@@H](Oc2ncnc3sc(-c4ccc(F)cc4)c(-c4ccc(OCCN5CC[N+](C)(Cc6ccc(NC(=O)[C@H](CCCNC(N)=O)NC(=O)[C@@H](NC(=O)CCOCCN7C(=O)C=CC7=O)C(C)C)cc6COCc6cn(CCOCCOCCOCCOCCOCCOCCOCCOCCOCCOCCOCCOCCC(=O)O)nn6)CC5)c(Cl)c4C)c23)C(=O)O)n1` [L33-P1], the IC50 came to 0.62 nM in assay [1], 6.72 nM in assay [2] and 2.58 nM in assay [3]. Also, the “EOL-1 Amax” value in assay [1] (setting [6]) came to 66.96. The “MONO-MAC-1 Amax” value in assay [2] worked out at 89.18. The “NOMO-1 Amax” value in assay [3] (setting [6]) is recorded as 58.95.
As for `COc1ccccc1-c1nccc(COc2ccccc2C[C@@H](Oc2ncnc3sc(-c4ccc(F)cc4)c(-c4ccc(OCCN5CC[N+](C)(Cc6ccc(NC(=O)[C@H](CCCNC(N)=O)NC(=O)[C@@H](NC(=O)CCOCCN7C(=O)C=CC7=O)C(C)C)cc6COCc6cn(CCOC(=O)NS(=O)(=O)NCCOCCOCCOCCC(=O)O)nn6)CC5)c(Cl)c4C)c23)C(=O)O)n1` [L60-P1, trifluoroacetate], the “EOL-1 Amax” value in assay [1] (setting [6]) was 79.04. Further, the IC50 turned out to be 0.535 nM in assay [1] (setting [7]) and 2.62 nM in assay [3] (setting [8]). Further, the “NOMO-1 Amax” value in assay [3] (setting [6]) is reported as 76.94.

B1: milatuzumab (antibody, V domains shown)
VH: QVQLQQSGSELKKPGASVKVSCKASGYTFTNYGVNWIKQAPGQGLQWMGWINPNTGEPTFDDDFKGRFAFSLDTSVSTAYLQISSLKADDTAVYFCSRSRGKNEAWFAYWGQGTLVTVSS
VL: DIQLTQSPLSLPVTLGQPASISCRSSQSLVHRNGNTYLHWFQQRPGQSPRLLIYTVSNRFSGVPDRFSGSGSGTDFTLKISRVEAEDVGVYFCSQSSHVPPTFGAGTRLEIK
notes: also called hLL1; WT IgG
For B1, in assay [4], the Kd is 16 nM, the koff amounted to 0.00088 s⁻¹ and the kon worked out at 56000 M⁻¹ s⁻¹. In assay [5], the Kd is 4.9 nM, the koff was 0.00051 s⁻¹ and the kon worked out at 100000 M⁻¹ s⁻¹.

B2: Mil_HCx hzVk1b (antibody, V domains shown)
VH: QVQLQQSGSELKKPGASVKVSCKASGYTFTNYGVNWIKQAPGQGLQWMGWINPNTGEPTFDDDFKGRFAFSLDTSVSTAYLQISSLKADDTAVYFCSRSRGKNEAWFAYWGQGTLVTVSS
VL: DVVMTQSPLSLPVTLGQPASISCRSSQSLVHRNGNTYLHWYQQRPGQSPRLLIYTVSNRFSGVPDRFSGSGSGTDFTLKISRVEAEDVGVYFCSQSSHVPPTFGQGTKLEIK
notes: Tested as IgG; also called hLL1 heavy chain with hzLL1-Vk1b light chain
For the molecule B2, in assay [4], the Kd was 5.1 nM, the koff came out at 0.00058 s⁻¹ and the kon was 110000 M⁻¹ s⁻¹. Besides, in assay [5], the Kd was 0.72 nM, the koff came to 0.00017 s⁻¹ and the kon turned out to be 230000 M⁻¹ s⁻¹.

B3: Hcmil x LCmil_NQ (antibody, V domains shown)
VH: QVQLQQSGSELKKPGASVKVSCKASGYTFTNYGVNWIKQAPGQGLQWMGWINPNTGEPTFDDDFKGRFAFSLDTSVSTAYLQISSLKADDTAVYFCSRSRGKNEAWFAYWGQGTLVTVSS
VL: DIQLTQSPLSLPVTLGQPASISCRSSQSLVHRNQNTYLHWFQQRPGQSPRLLIYTVSNRFSGVPDRFSGSGSGTDFTLKISRVEAEDVGVYFCSQSSHVPPTFGAGTRLEIK
notes: Tested as IgG; also called hLL1 heavy chain with hLL1 (NQ) light chain
Regarding B3, in assay [4], the Kd was 26 nM, the koff worked out at 0.00077 s⁻¹ and the kon was 30000 M⁻¹ s⁻¹. In assay [5], the Kd worked out at 3.4 nM, the dissociation rate constant (koff) turned out to be 0.00033 s⁻¹ and the kon was found to be 96000 M⁻¹ s⁻¹.

B4: VHmil x VK1bNQ (antibody, V domains shown)
VH: QVQLQQSGSELKKPGASVKVSCKASGYTFTNYGVNWIKQAPGQGLQWMGWINPNTGEPTFDDDFKGRFAFSLDTSVSTAYLQISSLKADDTAVYFCSRSRGKNEAWFAYWGQGTLVTVSS
VL: DVVMTQSPLSLPVTLGQPASISCRSSQSLVHRNQNTYLHWYQQRPGQSPRLLIYTVSNRFSGVPDRFSGSGSGTDFTLKISRVEAEDVGVYFCSQSSHVPPTFGQGTKLEIK
notes: Tested as IgG; also called VHmil × VK1bNQ; hLL1 heavy chain with hzLL1-Vk1b (NQ) light chain
Regarding B4, in assay [4], the Kd amounted to 5.3 nM, the koff came to 0.00058 s⁻¹ and the kon was determined as 110000 M⁻¹ s⁻¹. Moreover, in assay [5], the Kd was found to be 0.76 nM, the off-rate (koff) is 0.00016 s⁻¹ and the kon turned out to be 220000 M⁻¹ s⁻¹.

B5: VHmil x VK1aNQ (antibody, V domains shown)
VH: QVQLQQSGSELKKPGASVKVSCKASGYTFTNYGVNWIKQAPGQGLQWMGWINPNTGEPTFDDDFKGRFAFSLDTSVSTAYLQISSLKADDTAVYFCSRSRGKNEAWFAYWGQGTLVTVSS
VL: DIVMTQTPLSLPVTPGEPASISCRSSQSLVHRNQNTYLHWYLQKPGQSPQLLIYTVSNRFSGVPDRFSGSGSGTDFTLKISRVEAEDVGVYFCSQSSHVPPTFGQGTKLEIK
notes: Tested as IgG; also called VHmil × VK1aNQ; hLL1 heavy chain with hzLL1-Vk1a (NQ) light chain
As for B5, in assay [4], the Kd was 5.9 nM, the koff came out at 0.00062 s⁻¹ and the kon amounted to 100000 M⁻¹ s⁻¹. Also, in assay [5], the Kd amounted to 0.91 nM, the koff came out at 0.00018 s⁻¹ and the kon turned out to be 200000 M⁻¹ s⁻¹.

B6: Mil_HCx hzVk1a (antibody, V domains shown)
VH: QVQLQQSGSELKKPGASVKVSCKASGYTFTNYGVNWIKQAPGQGLQWMGWINPNTGEPTFDDDFKGRFAFSLDTSVSTAYLQISSLKADDTAVYFCSRSRGKNEAWFAYWGQGTLVTVSS
VL: DIVMTQTPLSLPVTPGEPASISCRSSQSLVHRNGNTYLHWYLQKPGQSPQLLIYTVSNRFSGVPDRFSGSGSGTDFTLKISRVEAEDVGVYFCSQSSHVPPTFGQGTKLEIK
notes: Tested as IgG; also called hLL1 heavy chain with hzLL1-Vk1a light chain
For B6, in assay [4], the Kd amounted to 5.7 nM, the koff was 0.00058 s⁻¹ and the kon is 100000 M⁻¹ s⁻¹. In assay [5], the Kd stood at 0.85 nM, the koff stood at 0.00018 s⁻¹ and the kon worked out at 210000 M⁻¹ s⁻¹.
